Source: the NIST ThermoML archive (doi:10.1021/acs.jced.5b00105)

Test: xn = mol fraction of the nth substance listed
Conditions: 100 kPa, Liquid; for mass density: Vibrating tube method; for viscosity: Concentric cylinders viscometry

CCC1CCCCC1 [ethylcyclohexane] + CC(C)CC(C)(C)C
Conditions | mass density [kg/m3] | viscosity [mPa·s]
308.15 K, x1 = 0.1 | 688.43 | –
308.15 K, x1 = 0.2 | 697.49 | –
308.15 K, x1 = 0.3003 | 706.8 | –
308.15 K, x1 = 0.3997 | 716.14 | –
308.15 K, x1 = 0.5002 | 725.74 | –
308.15 K, x1 = 0.6005 | 735.47 | –
308.15 K, x1 = 0.7002 | 745.32 | –
308.15 K, x1 = 0.8003 | 755.35 | –
308.15 K, x1 = 0.8997 | 765.46 | –
308.15 K, x1 = 1 | 775.88 | –
313.15 K, x1 = 0.1 | – | 0.446
313.15 K, x1 = 0.1012 | 684.26 | –
313.15 K, x1 = 0.2 | – | 0.464
313.15 K, x1 = 0.2003 | 693.35 | –
313.15 K, x1 = 0.3001 | 702.64 | –
313.15 K, x1 = 0.3003 | – | 0.482
313.15 K, x1 = 0.3997 | – | 0.503
313.15 K, x1 = 0.4019 | 712.01 | –
313.15 K, x1 = 0.5002 | – | 0.524
313.15 K, x1 = 0.5008 | 721.61 | –
313.15 K, x1 = 0.6 | 731.36 | –
313.15 K, x1 = 0.6005 | – | 0.548
313.15 K, x1 = 0.6998 | 741.23 | –
313.15 K, x1 = 0.7002 | – | 0.573
313.15 K, x1 = 0.8 | 751.26 | –
313.15 K, x1 = 0.8003 | – | 0.601
313.15 K, x1 = 0.8997 | – | 0.63
313.15 K, x1 = 0.9 | 761.39 | –
313.15 K, x1 = 1 | 771.82 | 0.663
318.15 K, x1 = 0.1 | – | 0.429
318.15 K, x1 = 0.1012 | 680.05 | –
318.15 K, x1 = 0.2 | – | 0.445
318.15 K, x1 = 0.2003 | 689.16 | –
318.15 K, x1 = 0.3001 | 698.38 | –
318.15 K, x1 = 0.3003 | – | 0.461
318.15 K, x1 = 0.3997 | – | 0.481
318.15 K, x1 = 0.4019 | 707.8 | –
318.15 K, x1 = 0.5002 | – | 0.5
318.15 K, x1 = 0.5008 | 717.38 | –
318.15 K, x1 = 0.6 | 727.09 | –
318.15 K, x1 = 0.6005 | – | 0.522
318.15 K, x1 = 0.6998 | 737.02 | –
318.15 K, x1 = 0.7002 | – | 0.548
318.15 K, x1 = 0.8 | 747.05 | –
318.15 K, x1 = 0.8003 | – | 0.573
318.15 K, x1 = 0.8997 | – | 0.598
318.15 K, x1 = 0.9 | 757.21 | –
318.15 K, x1 = 1 | 767.69 | 0.628
323.15 K, x1 = 0.1 | – | 0.412
323.15 K, x1 = 0.1012 | 675.82 | –
323.15 K, x1 = 0.2 | – | 0.427
323.15 K, x1 = 0.2003 | 684.95 | –
323.15 K, x1 = 0.3001 | 694.19 | –
323.15 K, x1 = 0.3003 | – | 0.442
323.15 K, x1 = 0.3997 | – | 0.46
323.15 K, x1 = 0.4019 | 703.63 | –
323.15 K, x1 = 0.5002 | – | 0.478
323.15 K, x1 = 0.5008 | 713.22 | –
323.15 K, x1 = 0.6 | 722.95 | –
323.15 K, x1 = 0.6005 | – | 0.499
323.15 K, x1 = 0.6998 | 732.88 | –
323.15 K, x1 = 0.7002 | – | 0.522
323.15 K, x1 = 0.8 | 742.93 | –
323.15 K, x1 = 0.8003 | – | 0.546
323.15 K, x1 = 0.8997 | – | 0.569
323.15 K, x1 = 0.9 | 753.1 | –
323.15 K, x1 = 1 | 763.59 | 0.597
333.15 K, x1 = 0.1 | – | 0.383
333.15 K, x1 = 0.1012 | 667.27 | –
333.15 K, x1 = 0.2 | – | 0.396
333.15 K, x1 = 0.2003 | 676.43 | –
333.15 K, x1 = 0.3001 | 685.73 | –
333.15 K, x1 = 0.3003 | – | 0.409
333.15 K, x1 = 0.3997 | – | 0.425
333.15 K, x1 = 0.4019 | 695.2 | –
333.15 K, x1 = 0.5002 | – | 0.44
333.15 K, x1 = 0.5008 | 704.82 | –
333.15 K, x1 = 0.6 | 714.58 | –
333.15 K, x1 = 0.6005 | – | 0.457
333.15 K, x1 = 0.6998 | 724.55 | –
333.15 K, x1 = 0.7002 | – | 0.478
333.15 K, x1 = 0.8 | 734.62 | –
333.15 K, x1 = 0.8003 | – | 0.498
333.15 K, x1 = 0.8997 | – | 0.518
333.15 K, x1 = 0.9 | 744.81 | –
333.15 K, x1 = 1 | 755.35 | 0.541
343.15 K, x1 = 0.1 | – | 0.358
343.15 K, x1 = 0.1012 | 658.57 | –
343.15 K, x1 = 0.2 | – | 0.369
343.15 K, x1 = 0.2003 | 667.78 | –
343.15 K, x1 = 0.3001 | 677.13 | –
343.15 K, x1 = 0.3003 | – | 0.38
343.15 K, x1 = 0.3997 | – | 0.395
343.15 K, x1 = 0.4019 | 686.64 | –
343.15 K, x1 = 0.5002 | – | 0.408
343.15 K, x1 = 0.5008 | 696.31 | –
343.15 K, x1 = 0.6 | 706.12 | –
343.15 K, x1 = 0.6005 | – | 0.423
343.15 K, x1 = 0.6998 | 716.12 | –
343.15 K, x1 = 0.7002 | – | 0.441
343.15 K, x1 = 0.8 | 726.23 | –
343.15 K, x1 = 0.8003 | – | 0.458
343.15 K, x1 = 0.8997 | – | 0.476
343.15 K, x1 = 0.9 | 736.46 | –
343.15 K, x1 = 1 | 747.03 | 0.496
